Test: Pharmacokinetic study of DRV in rats after oral dosing
Format: in vivo, male Wistar rats
[1] = male, Wistar, rat, plasma, po, 50 mg/kg
[2] = oral 50 mg/kg, rats, n=6, mean±SD

AUC(0-inf) [1]: 1060 ± 49 ng·h/mL | AUC(0-t) [1]: 1010 ± 48 ng·h/mL | Cmax [1]: 130 ± 4 ng/mL | MRT inf [1]: 7.89 ± 0.83 h | Tmax [1]: 3 ± 0.28 h | AUMC0−t [2]: 6518±386 ng h^2/mL | AUMC0−∞ [2]: 8408±914 ng h^2/mL
Structure (SMILES): CC(C)CN(C[C@@H](O)[C@H](Cc1ccccc1)NC(=O)O[C@H]1CO[C@H]2OCC[C@H]21)S(=O)(=O)c1ccc(N)cc1 [DRV, darunavir]
